The results in this text go back to patent publication US20050090498A1, “3-Quinolin-2(1h)-ylideneindolin-2-one derivative” (priority 2001, published 2005).

For assay [1], the system named is human colon tumor COLO 205. As to the kind of experiment: In vivo anti-tumor test using human colon tumor bearing nude mice. The settings on record: COLO 205 bearing nude mice, oral once a day for 14 days, 10 or 30 mg/kg/day. The arrangement: species or system female Balb/c nude mouse. Here is the method: Test method: A total of 4×10^6 cells of a human colon tumor COLO 205 were administered under the dorsal side skin of each female Balb/c nude mouse. When the tumor volume reached 50 to 100 mm^3, each of the test compounds was orally administered once a day for 14 days. In addition, 0.5% methyl cellulose aqueous solution was orally administered to the control group. Calipers were used for the measurement of tumor diameter, and it was measured on the next day of the final administration. In this case, the tumor volume was calculated using the following calculation formula. Tumor volume=(width^2×length)/2

Assay [2] concerns Human umbilical vein endothelial cells (HUVEC), VEGF-stimulated. As to the kind of experiment: Test on the inhibition of VEGF-stimulated HUVEC growth ([3H]thymidine incorporation). Particulars: human recombinant VEGF 10 ng/ml. The class given is cell-based. How it is done: Test method: (Cell culture) Human umbilical vein endothelial cells (HUVEC) were cultured using EGM-2 complete medium (Clonetics) which had been supplemented with additives (2% FBS, 0.4% FGF (fibroblast growth factor), 0.1% VEGF, 0.1% IGF-I (insulin like growth factor-I), 0.1% EGF (epidermal growth factor), 0.1% ascorbic acid, 0.1% GA-1000, 0.1% heparin and 0.04% hydrocortisone).
(Evaluation of compounds) HUVEC (10,000 cells/well) were inoculated into EGM-2 complete medium in a gelatin-coated 96 well plate (mfd. by IWAKI) and cultured overnight. After washing with a physiological phosphate buffer, the medium was exchanged with a low serum medium (Medium 199/0.1% FBS) and the culturing was continued for 24 hours. Each of the compounds to be evaluated was prepared as a 10 mM DMSO solution and diluted with the low serum medium. This was added to each well to a final concentration of from 0.001 to 10 μM. After 2 hours of the compound treatment, human recombinant VEGF (R & D Systems) was added to a final concentration of 10 ng/ml. After 18 hours, [^3H]thymidine (Amersham Pharmacia) was added in 5 μCi/well portions. After 4 hours, the reaction was terminated by adding 0.2% SDS in 50 μl/well portions, and the product was recovered on GF/C Unifilter (Packard). After adding 25 μl of Microscinti 20 (Packard), the radioactivity incorporated into the DNA trapped on the filter was measured using TopCount (Packard). The IC50 of the inhibitory activity of each compound was calculated as the 50% inhibition concentration (IC50 value) of each compound to be tested, by defining the incorporated amount of [^3H]thymidine at the time of VEGF addition as 100%, and its incorporated amount at the time of no addition of VEGF as 0%.
On the technique in general: Uptake of a labelled nucleoside into DNA is a usual measure of proliferation.

For assay [3] the test system is unchanged. The description is as above. The settings on record: human recombinant VEGF 10 ng/ml. The format is cell-based. This is another data set of the same source.

In general, IC50 refers to the concentration needed to halve the response being measured. Turning to `CN1CCN(CCOc2ccc3c(c2)C=CC(=C2C(=O)Nc4ccccc42)N3)CC1` [Example 41], the “tumor growth inhibition (tumor volume) versus control” value in assay [1] is on record as “inhibit the tumor growth with a significance for the control”. In addition, the IC50 in assay [2] came to 120 nM.

For the compound `O=C1Nc2cnc(Cl)nc2/C1=C1\C=Cc2ccccc2N1` [Example 361], in assay [3], the half-inhibitory concentration (IC50) came to 24 nM.

`O=C(Nc1cccnc1)Nc1ccc2c(c1)C=CC(=C1C(=O)Nc3ccccc31)N2` [Example 16, 1-[2-(2-oxoindolin-3-ylidene)-1,2-dihydroquinolin-6-yl]-3-(pyridin-3-yl)urea]: the concentration for half-maximal inhibition (IC50) in assay [3] worked out at 110 nM.

Turning to `O=C(CN1CCOCC1)Nc1ccc2c(c1)C=CC(=C1C(=O)Nc3ccccc31)N2` [Example 9, 2-morpholin-4-yl-N-[2-(2-oxoindolin-3-ylidene)-1,2-dihydroquinolin-6-yl]acetamide], the IC50 in assay [3] worked out at 200 nM.

`CCN(CC)CCOc1ccc2c(c1)C=CC(=C1C(=O)Nc3ccccc31)N2.O=C(O)CCC(=O)O` [Example 44]: the “tumor growth inhibition (tumor volume) versus control” value in assay [1] was “inhibit the tumor growth with a significance for the control”. In addition, in assay [2], the IC50 amounted to 280 nM.

In the case of `CCN(CC)CCCc1ccc2c(c1)C=CC(=C1C(=O)Nc3ccccc31)N2` [Example 99], the “tumor growth inhibition (tumor volume) versus control” value in assay [1] was “inhibit the tumor growth with a significance for the control”. Moreover, in assay [2], the IC50 is 130 nM.

Regarding `O=C1Nc2ccccc2C1=C1C=Cc2cc(OCC(=O)N3CCOCC3)ccc2N1` [Example 8, 3-[6-(2-morpholin-4-yl-2-oxoethoxy)quinolin-2(1H)-ylidene]indolin-2-one], the IC50 in assay [3] turned out to be 170 nM.

With `O=C1Nc2cc(C(=O)O)ccc2C1=C1C=Cc2ccccc2N1` [Example 25, 2-oxo-3-quinolin-2(1H)-ylideneindoline-6-carboxylic acid], the IC50 in assay [3] was determined as 380 nM.

`O=C1Nc2cc(F)ccc2C1=C1C=Cc2cc(OCCN3CCOCC3)ccc2N1` [Example 310]: the “tumor growth inhibition (tumor volume) versus control” value in assay [1] was “inhibit the tumor growth with a significance for the control”. Also, the IC50 in assay [2] turned out to be 310 nM.

`O=C1Nc2ccccc2C1=C1C=Cc2cc(CO)ccc2N1` [Example 14, 3-(6-hydroxymethylquinolin-2(1H)-ylidene)indolin-2-one]: the concentration for half-maximal inhibition (IC50) in assay [3] was 300 nM.

For `CCOC(=O)c1ccc2c(c1)NC(=O)C2=C1C=Cc2ccccc2N1` [Example 17, ethyl 3-[quinolin-2(1H)-ylidene]indolin-2-one-carboxylate], in assay [2], the half-inhibitory concentration (IC50) is 12 nM.

On to `CCOC(=O)c1cc2c(cc1C)C(=C1C=Cc3cc(OCCN4CCOCC4)ccc3N1)C(=O)N2` [Example 301], for which the half-inhibitory concentration (IC50) in assay [2] turned out to be 7.6 nM.

Take `COc1ccc2c(c1)C=CC(=C1C(=O)Nc3ccccc31)N2` [Example 37]: the IC50 in assay [2] came to 310 nM.

Regarding `O=C1Nc2ccccc2C1=C1C=Cc2cc(OCCN3CCC(n4c(=O)[nH]c5ccccc54)CC3)ccc2N1` [Example 81], in assay [2], the IC50 came to 68 nM.

With `O=C1Nc2ccccc2C1=C1C=Cc2cc(CNCC3CCCO3)ccc2N1` (stereo not shown) [Example 111], the “tumor growth inhibition (tumor volume) versus control” value in assay [1] was “inhibit the tumor growth with a significance for the control”. The IC50 in assay [2] was determined as 300 nM.

In the case of `CN1CCC(COc2ccc3c(c2)C=CC(=C2C(=O)Nc4ccccc42)N3)CC1` [Example 15, 3-{6-[(1-methylpiperidin-4-yl)methoxy]quinolin-2(1H)-ylidene}indolin-2-one], the IC50 in assay [3] was determined as 320 nM.

With `CC(=O)c1ccc2c(c1)NC(=O)C2=C1C=Cc2ccccc2N1` [Example 21, 6-acetyl-3-quinolin-2(1H)-ylideneindolin-2-one], the IC50 in assay [3] came to 220 nM.

`Nc1ccc2c(c1)C=CC(=C1C(=O)Nc3ccccc31)N2` [Example 10, 3-[6-aminoquinolin-2(1H)-ylidene]indolin-2-one]: the half-maximal inhibitory concentration (IC50) in assay [3] stood at 990 nM.

With `O=C1Nc2ccc([N+](=O)[O-])cc2C1=C1C=Cc2ccccc2N1` [Example 284], the 50% inhibitory concentration (IC50) in assay [2] was found to be 360 nM.

Regarding `CCOCc1ccc2c(c1)NC(=O)C2=C1C=Cc2ccccc2N1` [Example 259], the IC50 in assay [2] stood at 71 nM.

In the case of `CN(C)CCN(C)CCOc1ccc2c(c1)C=CC(=C1C(=O)Nc3ccccc31)N2` [Example 86], the IC50 in assay [2] came to 100 nM.

Take `O=C1Nc2ccccc2C1=C1C=Cc2cc(OCCCN3CCOCC3)ccc2N1` [Example 42]: the IC50 in assay [2] turned out to be 110 nM.

Take `CCOC(=O)c1cc2c(cc1C)C(=C1C=Cc3ccccc3N1)C(=O)N2` [Example 222]: the IC50 in assay [2] turned out to be 6.8 nM.

With `O=C(NCCCN1CCOCC1)C1=CC(=C2C(=O)Nc3ccccc32)Nc2ccccc21` [Example 163], the IC50 in assay [2] came out at 43 nM.

In the case of `O=C1Nc2ccccc2C1=C1C=Cc2cc(OCCN3CCN(c4ncccn4)CC3)ccc2N1` [Example 82], in assay [2], the IC50 turned out to be 42 nM.

Take `CN1CCN(Cc2ccc3c(c2)C=CC(=C2C(=O)Nc4ccccc42)N3)CC1` [Example 132, 3-{6-[(4-methylpiperazin-1-yl)methyl]quinolin-2(1H)-ylidene}indolin-2-one]: the “tumor growth inhibition (tumor volume) versus control” value in assay [1] is “inhibit the tumor growth with a significance for the control”.

Regarding `O=C1Nc2ccccc2C1=C1C=Cc2ccc(OCCN3CCOCC3)cc2N1` [Example 102], the concentration for half-maximal inhibition (IC50) in assay [2] turned out to be 410 nM.

Consider `O=C1Nc2ccccc2C1=C1C=Cc2cc(CNC3CCOCC3)ccc2N1` [Example 115], for which the “tumor growth inhibition (tumor volume) versus control” value in assay [1] is listed as “inhibit the tumor growth with a significance for the control”.

As for `O=C1Nc2ccc(F)cc2C1=C1C=Cc2cc(OCCN3CCOCC3)ccc2N1` [Example 311], in assay [1], the “tumor growth inhibition (tumor volume) versus control” value is “inhibit the tumor growth with a significance for the control”. The half-inhibitory concentration (IC50) in assay [2] is 240 nM.

For `O=C1Nc2cc(Cl)ccc2C1=C1C=Cc2ccccc2N1` [Example 217], the IC50 in assay [2] is 11 nM.

Take `O=C1Nc2ccc(F)cc2C1=C1C=Cc2ccccc2N1` [Example 213]: in assay [2], the IC50 worked out at 0.97 nM.

For `O=C1Nc2ccccc2C1=C1C=Cc2cc(OCCn3ccnn3)ccc2N1` [Example 1, 3-{6-[2-(1H-1,2,3-triazol-1-yl)ethoxy]quinolin-2(1H)-ylidene}indolin-2-one], the IC50 in assay [3] was determined as 210 nM.

Turning to `O=C1Nc2ccccc2C1=C1C=Cc2cc(CN3CCOCC3)ccc2N1` [Example 54], in assay [1], the “tumor growth inhibition (tumor volume) versus control” value is “inhibit the tumor growth with a significance for the control”. Moreover, in assay [2], the 50% inhibitory concentration (IC50) came out at 29 nM.

With `CN1CCCN(CCOc2ccc3c(c2)C=CC(=C2C(=O)Nc4ccccc42)N3)CC1` [Example 83], the half-maximal inhibitory concentration (IC50) in assay [2] was found to be 110 nM.

Take `O=C1Nc2ccccc2C1=C1C=Cc2cc(OCCNC3CCC(O)CC3)ccc2N1` (stereo not shown) [Example 57]: the IC50 in assay [2] worked out at 720 nM.

With `CCOC(=O)c1ccc2c(c1)C(=C1C=Cc3ccccc3N1)C(=O)N2` [Example 239], in assay [2], the half-maximal inhibitory concentration (IC50) was 310 nM.

In the case of `CCN(CC)CCNC(=O)C1=CC(=C2C(=O)Nc3ccccc32)Nc2ccccc21` [Example 160], the 50% inhibitory concentration (IC50) in assay [2] worked out at 46 nM.

As to `CCN1CCN(Cc2ccc3c(c2)C=CC(=C2C(=O)Nc4ccccc42)N3)CC1` [Example 134, 3-{6-[(4-ethylpiperazin-1-yl)methyl]quinolin-2(1H)-ylidene}indolin-2-one], the “tumor growth inhibition (tumor volume) versus control” value in assay [1] is given as “inhibit the tumor growth with a significance for the control”.

`CCOC(=O)CCC1=CC(=C2C(=O)Nc3ccccc32)Nc2ccccc21` [Example 39]: the IC50 in assay [2] was 32 nM.

Regarding `Cl.O=C1Nc2ccccc2C1=C1C=Cc2cc(CNCC3CCOCC3)ccc2N1` [Example 113], the “tumor growth inhibition (tumor volume) versus control” value in assay [1] was “inhibit the tumor growth with a significance for the control”.

Regarding `O=C1Nc2cc(C(F)(F)F)ccc2C1=C1C=Cc2ccccc2N1` [Example 203], in assay [2], the IC50 stood at 4.8 nM.

Turning to `CC(=O)Oc1ccc2c(c1)NC(=O)C2=C1C=Cc2ccccc2N1` [Example 265], the IC50 in assay [2] was 180 nM.

Regarding `CN(C)[C@H]1CCCC1Nc1ncc2c(n1)/C(=C1\C=Cc3ccccc3N1)C(=O)N2` (stereo partly shown) [Example 354], the IC50 in assay [3] was determined as 140 nM.

With `O=C1Nc2cc(F)c(F)cc2C1=C1C=Cc2cc(OCCN3CCOCC3)ccc2N1` [Example 341], the IC50 in assay [2] was 20 nM.

On to `O=C(NCCN1CCOCC1)C1=CC(=C2C(=O)Nc3ccccc32)Nc2ccccc21` [Example 159], for which the IC50 in assay [2] is 38 nM.

Turning to `O=C(O)CCc1ccc2c(c1)C=CC(=C1C(=O)Nc3ccccc31)N2` [Example 66], in assay [2], the half-inhibitory concentration (IC50) came out at 350 nM.

As to `N#Cc1ccc2c(c1)NC(=O)C2=C1C=Cc2cc(OCCN3CCOCC3)ccc2N1` [Example 295], in assay [2], the half-inhibitory concentration (IC50) worked out at 33 nM.

As for `CCOC(=O)CNC(=O)c1ccc2c(c1)C=CC(=C1C(=O)Nc3ccccc31)N2` [Example 146], the IC50 in assay [2] was 76 nM.
